The target of data set [1] is T1, Na^+/H^+ exchanger of rabbit erythrocytes (Oryctolagus cuniculus, UniProt P23791).
T1 construct: determine the Na^+ influx into the erythrocytes via Na^+/H^+ exchange by flame photometry; endogenous in cells; host or cells: erythrocytes in whole blood of cholesterol-fed White New Zealand rabbits
As to the kind of experiment: Inhibition of the Na+/H+ exchanger of rabbit erythrocytes (amiloride-sensitive sodium influx, flame photometry). The data set is classed as cell-based. The settings on record: pH 7.4, 37° C., hyperosmolar salt-sucrose medium. From the text:
Inhibition of the Na^+/H^+ exchanger of rabbit erythrocytes:
White New Zealand rabbits (Ivanovas) received a standard diet containing 2% cholesterol for six weeks in order to activate Na^+/H^+ exchange and thus to be able to determine the Na^+ influx into the erythrocytes via Na^+/H^+ exchange by flame photometry. The blood was taken from the auricular arteries and rendered uncoagulable by means of 25 lU/ml of potassium heparin. A part of each sample was used for the duplicate determination of the hematocrit by centrifugation. Aliquots of 100 μl in each case were used to measure the Na^+ starting content of the erythrocytes.
In order to determine the amiloride-sensitive sodium influx, 100 μl of each blood sample were incubated at pH 7.4 and 37° C. in 5 ml in each case of a hyperosmolar salt-sucrose medium (mmol/l: 140 NaCl, 3 KCl, 150 sucrose, 0.1 ouabain, 20 trishydroxymethylaminomethane). The erythrocytes were then washed three times with ice-cold MgCl2-ouabain solution (mmol/l: 112 MgCl2, 0.1 ouabain) and hemolyzed in 2.0 ml of distilled water. The intracellular sodium content was determined by flame photometry.
The net Na^+ influx was calculated from the difference between sodium starting values and the sodium content of the erythrocytes after incubation. The amiloride-inhibitable sodium influx ensued from the difference in the sodium content of the erythrocytes after incubation with and without amiloride 3×10^−4 mol/l. The sodium influx was also determined in this manner in the case of the compounds according to the invention.

Another data set relates to rat hearts. The following applies: isolated rat hearts; cited from earlier work.

pIC50: −log10 of the molar value. Where a name gives a salt, the structure may show the parent alone. Some results are limits rather than exact numbers.

The values that follow come from US6600072B2, “Substituted 1-naphthoylguanidines, process for their preparation, their use as a medicament or diagnostic , and medicament containing them” (Aventis Pharma Deutschland GmbH, priority 1996, dated 2003).

T1 sequence (P23791 whole entry): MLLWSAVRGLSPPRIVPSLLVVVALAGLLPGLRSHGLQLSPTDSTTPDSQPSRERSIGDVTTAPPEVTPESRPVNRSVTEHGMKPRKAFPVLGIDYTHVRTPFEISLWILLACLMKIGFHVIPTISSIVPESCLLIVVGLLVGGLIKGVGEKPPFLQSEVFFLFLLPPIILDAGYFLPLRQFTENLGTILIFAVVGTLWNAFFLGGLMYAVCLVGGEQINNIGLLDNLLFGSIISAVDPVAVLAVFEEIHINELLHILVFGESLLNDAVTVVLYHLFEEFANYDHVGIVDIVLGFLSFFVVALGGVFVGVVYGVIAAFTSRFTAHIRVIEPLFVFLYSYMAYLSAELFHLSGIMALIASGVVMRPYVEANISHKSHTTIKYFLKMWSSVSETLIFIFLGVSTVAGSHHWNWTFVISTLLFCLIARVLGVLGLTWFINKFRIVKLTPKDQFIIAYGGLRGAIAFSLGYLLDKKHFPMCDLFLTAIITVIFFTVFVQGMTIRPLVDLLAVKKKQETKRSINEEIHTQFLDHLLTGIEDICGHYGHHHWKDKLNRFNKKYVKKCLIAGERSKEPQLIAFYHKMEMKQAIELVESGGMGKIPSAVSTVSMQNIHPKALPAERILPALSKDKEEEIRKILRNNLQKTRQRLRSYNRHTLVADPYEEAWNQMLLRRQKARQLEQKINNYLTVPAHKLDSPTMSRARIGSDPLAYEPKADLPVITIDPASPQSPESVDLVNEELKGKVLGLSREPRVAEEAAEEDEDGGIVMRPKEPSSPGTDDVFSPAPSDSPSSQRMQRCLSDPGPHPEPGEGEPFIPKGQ

The term melting point denotes the temperature, or range, at which the solid turns liquid. `NC(N)=NC(=O)c1c(OCc2ccc(Br)cc2)ccc2ccccc12` (as salt: hydrochloride) (hydrate or solvate) [Example 9, 2-(4-Bromobenzyloxy)naphthoylguanidine Hydrochloride Hemihydrate] gave a melting point of 198 to 202 °C.

For `COc1ccc2c(C(=O)N=C(N)N)cccc2c1C(F)(F)F` (as salt: hydrochloride) [Example 3, 6-Methoxy-5-trifluoromethyl-1-naphthoyl-guanidine Hydrochloride], the melting point is more than 260 °C.

Turning to `COc1ccc2c(C(=O)N=C(N)N)cccc2c1` (as salt: hydrochloride) [Example 4, 6-Methoxy-1-naphthoylguanidine Hydrochloride], the melting point is 235 to 236 °C.

The term pIC50 denotes −log10 of the IC50, conventionally taken in molar units. `Cl.NC(N)=NC(=O)c1ccc(F)c2ccccc12` [Example 1, 4-Fluoro-1-naphthoylguanidine Hydrochloride] registered a melting point of 245 °C. Further, the negative-log IC50 (pIC50) in data set [1] is 5.70 to 6.00.

For the molecule `N=C(N)NC(=O)c1cccc2ccccc12` [Example 6, 1-Naphthoylguanidine Hydrochloride], in data set [1], the negative-log IC50 (pIC50) is 5.00.

`COc1ccc2ccccc2c1C(=O)NC(=N)N` [Example 8, 2-Methoxy-1-naphthoylguanidine Hydrochloride]: in data set [1], the negative logarithm of the IC50 (pIC50) was 6.30.

Consider `NC(N)=NC(=O)c1c(OCc2ccc(CN3CCCCC3)cc2)ccc2ccccc12` [Example 10, 2-[4-(1-Piperidinomethyl)benzyloxy]-1-naphthoylguanidine], for which the melting point was 205 to 210 °C.

For the molecule `CCCCOc1ccc2ccccc2c1C(=O)NC(=N)N` [Example 14, 2-Butyloxy-1-naphthoylguanidine Hydrochloride], the pIC50 in data set [1] was 6.00.

`CC(C)Oc1ccc2ccccc2c1C(=O)NC(=N)N` [Example 18, 2-Isopropyloxy-1-naphthoylguanidine Hydrochloride]: the negative-log IC50 (pIC50) in data set [1] is 5.70.

With `NC(N)=NC(=O)c1ccc(C(=O)N=C(N)N)c2ccccc12` [Example 23, Naphthaline-1,4-dicarboxylic Acid Diguanidide], the melting point was 270 °C (dec.).

With `N=C(N)NC(=O)c1nc(Cl)c(N)nc1N` [amiloride, Amiloride], the “suppression of artificially induced ventricular fibrillation” value with rat hearts is reported as “suppressed completely”.

For `CCN(c1nc(N)c(C(=O)NC(=N)N)nc1Cl)C(C)C` [ethylisopropylamiloride, Ethylisopropylamiloride], the “potency relative to amiloride in the ventricular fibrillation model” value in the data set with rat hearts is given as “even more potent than amiloride”.
